Data as given in US10865191B2, “Heterocyclic compounds useful as modulators of TNF alpha” (BRISTOL-MYERS SQUIBB COMPANY, priority 2015, dated 2020).

Each compound was assayed against TNFα (Homo sapiens, UniProt P01375) (assay: TNF induced HEK-Blue assay (NF-kB-driven secreted alkaline phosphatase reporter)). Conditions: TNFα 0.5 ng/mL, HEK-Blue-CD40L cells, 18 h; read-out: TNF induced HEK-Blue assay IC50 value.
Format: cell-based
How it was run: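 HEK-Blue-CD40L cells (NF-kB-driven SEAP reporter), 20,000/well, added after 30 min pre-incubation of compound (0.004–25 μM final) with TNFα 0.5 ng/mL final at 37 °C; 18 h incubation. SEAP read with QUANTI-Blue at 620 nm; IC50 from 4-parameter logistic fit, normalized to unstimulated and stimulated DMSO controls.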

TNFα, sequence (P01375 77-233 limits assumed): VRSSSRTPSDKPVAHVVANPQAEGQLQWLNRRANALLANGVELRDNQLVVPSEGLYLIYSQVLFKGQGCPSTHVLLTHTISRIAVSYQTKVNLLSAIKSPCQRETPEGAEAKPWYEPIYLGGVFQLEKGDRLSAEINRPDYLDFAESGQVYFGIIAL

`CC(C)(O)c1ncc(-c2nc3c(N[C@H](c4cc(C(O)CO)ccc4F)C(F)F)c(Cl)cnc3cc2F)cn1` (stereo partly drawn) [Example 488, 1-(3-((R)-1-((3-chloro-7-fluoro-6-(2-(2-hydroxypropan-2-yl)pyrimidin-5-yl)-1,5-naphthyridin-4-yl)amino)-2,2-difluoroethyl)-4-fluorophenyl)ethane-1,2-diol] and `CC(C)(O)c1ncc(-c2nc3c(N[C@@H](c4cc(C(O)CO)ccc4F)C(F)F)c(Cl)cnc3cc2F)cn1` (stereo partly drawn) [Example 492, 1-(3-((S)-1-((3-chloro-7-fluoro-6-(2-(2-hydroxypropan-2-yl)pyrimidin-5-yl)-1,5-naphthyridin-4-yl)amino)-2,2-difluoroethyl)-4-fluorophenyl)ethane-1,2-diol] cannot be ordered by IC50: under 1 µM for the first, under 1 µM for the second.

`CC(C)(O)c1ncc(-c2nc3c(N[C@H](c4cc(C#N)ccc4F)C(F)F)c(Cl)cnc3cc2F)cn1` [Example 489, (R)-3-(1-((3-chloro-7-fluoro-6-(2-(2-hydroxypropan-2-yl)pyrimidin-5-yl)-1,5-naphthyridin-4-yl)amino)-2,2-difluoroethyl)-4-fluorobenzonitrile] and `CC(C)(O)c1ncc(-c2nc3c(N[C@@H](c4cc(C#N)ccc4F)C(F)F)c(Cl)cnc3cc2F)cn1` [Example 498, (S)-3-(1-((3-chloro-7-fluoro-6-(2-(2-hydroxypropan-2-yl)pyrimidin-5-yl)-1,5-naphthyridin-4-yl)amino)-2,2-difluoroethyl)-4-fluorobenzonitrile] cannot be ordered by IC50: under 1 µM for the first, under 1 µM for the second.

First: C[C@@H](Nc1c(Cl)cnc2ccc(-c3ccc(C(C)(C)O)cc3)cc12)c1cnccn1 [Example 490, (R)-2-(4-(3-chloro-4-((1-(pyrazin-2-yl)ethyl)amino)quinolin-6-yl)phenyl)propan-2-ol]
Second: Cc1nc2ccc(-c3ccc(C(C)(C)O)cc3)cc2c(NC(C)c2cccs2)c1Cl (stereo not shown) [Example 502, 2-(4-(3-chloro-2-methyl-4-((1-(thiophen-2-yl)ethyl)amino)quinolin-6-yl)phenyl)propan-2-ol]
The IC50 of the first is lower: under 1 µM for the first, 1 to 10 µM for the second. The first is the more potent here.

`Cc1nc2cc(F)c(-c3cnc(C(C)(C)O)nc3)nc2c(N[C@@H](c2cc(C(O)CO)ccc2F)C(F)F)c1Cl` (stereo partly drawn) [Example 491, 1-(3-((S)-1-((3-chloro-7-fluoro-6-(2-(2-hydroxypropan-2-yl)pyrimidin-5-yl)-2-methyl-1,5-naphthyridin-4-yl)amino)-2,2-difluoroethyl)-4-fluorophenyl)ethane-1,2-diol] and `Cc1nc2cc(F)c(-c3cnc(C(C)(C)O)nc3)nc2c(N[C@@H](c2cc(CO)ccc2F)C(F)F)c1Cl` [Example 496, (S)-2-(5-(7-chloro-8-((2,2-difluoro-1-(2-fluoro-5-(hydroxymethyl)phenyl)ethyl)amino)-3-fluoro-6-methyl-1,5-naphthyridin-2-yl)pyrimidin-2-yl)propan-2-ol] cannot be ordered by IC50: under 1 µM for the first, under 1 µM for the second.

`CC(C)(O)c1ncc(-c2nc3c(N[C@@H](c4cc(C(N)=O)ccc4F)C(F)F)c(Cl)cnc3cc2F)cn1` [Example 493, (S)-3-(1-((3-chloro-7-fluoro-6-(2-(2-hydroxypropan-2-yl)pyrimidin-5-yl)-1,5-naphthyridin-4-yl)amino)-2,2-difluoroethyl)-4-fluorobenzamide] and `CC(C)(O)c1ncc(-c2nc3c(N[C@@H](c4cc(CO)ccc4F)C(F)F)c(Cl)cnc3cc2F)cn1` [Example 501, (S)-2-(5-(7-chloro-8-((2,2-difluoro-1-(2-fluoro-5-(hydroxymethyl)phenyl)ethyl)amino)-3-fluoro-1,5-naphthyridin-2-yl)pyrimidin-2-yl)propan-2-ol] cannot be ordered by IC50: under 1 µM for the first, under 1 µM for the second.

`C=Cc1ccc(F)c([C@H](Nc2c(Cl)c(C)nc3cc(F)c(-c4cnc(C(C)(C)O)nc4)nc23)C(F)F)c1` [Example 494, (S)-2-(5-(7-chloro-8-((2,2-difluoro-1-(2-fluoro-5-vinylphenyl)ethyl)amino)-3-fluoro-6-methyl-1,5-naphthyridin-2-yl)pyrimidin-2-yl) propan-2-ol] and `Cc1nc2cc(F)c(-c3cnc(C(C)(C)O)nc3)nc2c(N[C@@H](c2cc(C#N)ccc2F)C(F)F)c1Cl` [Example 499, (S)-3-(1-((3-chloro-7-fluoro-6-(2-(2-hydroxypropan-2-yl)pyrimidin-5-yl)-2-methyl-1,5-naphthyridin-4-yl)amino)-2,2-difluoroethyl)-4-fluorobenzonitrile] cannot be ordered by IC50: under 1 µM for the first, under 1 µM for the second.

`C=Cc1ccc(F)c([C@H](Nc2c(Cl)cnc3cc(F)c(-c4cnc(C(C)(C)O)nc4)nc23)C(F)F)c1` [Example 495, (S)-2-(5-(7-chloro-8-((2,2-difluoro-1-(2-fluoro-5-vinylphenyl)ethyl)amino)-3-fluoro-1,5-naphthyridin-2-yl)pyrimidin-2-yl)propan-2-ol] and `C[C@@H](Nc1c(Cl)cnc2cc(F)c(-c3cnc(C(C)(C)O)nc3)nc12)c1cc(CO)ccc1F` [Example 505, (R)-2-(5-(7-chloro-3-fluoro-8-((1-(2-fluoro-5-(hydroxymethyl)phenyl)ethyl)amino)-1,5-naphthyridin-2-yl)pyrimidin-2-yl)propan-2-ol] cannot be ordered by IC50: under 1 µM for the first, under 1 µM for the second.

`Cc1nc2cc(F)c(-c3cnc(C(C)(C)O)nc3)nc2c(N[C@@H](c2cc(C(N)=O)ccc2F)C(F)F)c1Cl` [Example 497, (S)-3-(1-((3-chloro-7-fluoro-6-(2-(2-hydroxypropan-2-yl)pyrimidin-5-yl)-2-methyl-1,5-naphthyridin-4-yl)amino)-2,2-difluoroethyl)-4-fluorobenzamide] and `C[C@@H](Nc1c(Cl)cnc2cc(F)c(-c3cnc(C(C)(C)O)nc3)nc12)c1cc(C(O)CO)ccc1F` (stereo partly drawn) [Example 504, 1-(3-((R)-1-((3-chloro-7-fluoro-6-(2-(2-hydroxypropan-2-yl)pyrimidin-5-yl)-1,5-naphthyridin-4-yl)amino)ethyl)-4-fluorophenyl)ethane-1,2-diol] cannot be ordered by IC50: under 1 µM for the first, under 1 µM for the second.

First: Cc1nc2ccc(-c3ccc(C(C)(C)O)cc3)cc2c(N[C@H](C)c2ccccc2F)c1Cl [Example 500, (R)-2-(4-(3-chloro-4-((1-(2-fluorophenyl)ethyl)amino)-2-methylquinolin-6-yl)phenyl)propan-2-ol]
Second: Cc1nc2ccc(-c3ccc(C(C)(C)O)cc3)cc2c(NC(C)c2ccsc2)c1Cl (stereo not shown) [Example 503, 2-(4-(3-chloro-2-methyl-4-((1-(thiophen-3-yl)ethyl)amino)quinolin-6-yl)phenyl)propan-2-ol]
The IC50 of the first is lower: under 1 µM for the first, 1 to 10 µM for the second.

`C[C@@H](Nc1c(Cl)cnc2ccccc12)c1cc(-c2ccc(N(C)C)nc2)ccc1F` [Example 506, (R)-3-chloro-N-(1-(5-(6-(dimethylamino)pyridin-3-yl)-2-fluorophenyl)ethyl) quinolin-4-amine] and `CCc1ccc(-c2ccc(F)c([C@@H](C)Nc3c(Cl)cnc4ccccc34)c2)cn1` [Example 508, (R)-3-chloro-N-(1-(5-(6-ethylpyridin-3-yl)-2-fluorophenyl)ethyl)quinolin-4-amine] cannot be ordered by IC50: under 1 µM for the first, under 1 µM for the second.

First: Cc1cncc(-c2ccc(F)c([C@@H](C)Nc3c(Cl)cnc4ccccc34)c2)c1 [Example 507, (R)-3-chloro-N-(1-(2-fluoro-5-(5-methylpyridin-3-yl)phenyl)ethyl)quinolin-4-amine]
Second: Fc1ccc(Br)cc1[C@H](Nc1c(Cl)cnc2ccccc12)C(F)F [Example 509, (S)—N-(1-(5-bromo-2-fluorophenyl)-2,2-difluoroethyl)-3-chloroquinolin-4-amine]
The IC50 of the first is lower: under 1 µM for the first, 1 to 10 µM for the second.
